Series [1] relates to gap junction coupling in HUVEC. Description: Multiparametric scrape loading-dye transfer assay (Lucifer Yellow spread). Type of series: cell-based, human. As to conditions: for LY spread in the absence of ionomycin stimulation: peptide 7 µM and 17.9 µM, 8 min pre-treatment + 8 min assay; for LY spread in the absence of ionomycin stimulation / LY spread after ionomycin pre-treatment in the presence of peptide: Ca2+-containing media; for LY spread after ionomycin pre-treatment in the presence of peptide: peptide 7 μM and 17.9 μM, 8 min + 8 min; for LY spread after scratch wounding: 60 min pre-treatment, PMA 100 nM or 18ßGRR 100 µM, 15 min post-scratch. The method, then:
(§1) The assay is described in detail in [48]; it is an adaption of the traditional fluorescence microscopy-based scrape loading dye transfer (sl-dt) technique. Briefly, HUVEC in 24 well trays were rinsed into +Ca+Mg-PBS. The solution was then replaced with fresh +Ca+Mg-PBS supplemented with Lucifer Yellow (LY; 1 mg/mL), propidium iodide (PI; 15 μM) and Hoechst 33,342 (90 μM) (dye transfer buffer). Immediately after addition of the dye transfer buffer, 3 parallel cuts in the cell monolayer in the central part of each well in the 24 wells were made using a micro scalpel knife with a flat edge stainless steel blade. The cells were then incubated at 37 °C for 8 or 15 min, as specified, before being washed twice with +Ca+Mg-PBS to remove the dye transfer buffer and then fixed in 3% PFA in PBS. Fresh dye transfer buffer was used for each experiment and the plates were stored in the dark at 4 °C.
For quantitative analysis of dye transfer and cell viability, images were acquired from 2 to 3 regions within each cut (6–9 measurements per well) using an EVOS M5000 microscope (Invitrogen, Waltham, MA, USA) equipped with a 10 × 0.3 NA air objective and EVOS LED light cubes for bright field imaging, FITC, RedX and DAPI. Images were acquired sequentially and exported to ImageJ for processing.
Phorbol 12-myristate 13-acetate (PMA) or 18-β-glycyrrhetinic acid (18BGRR) was made up in dimethysulphoxide (DMSO) to a 10 mM or 50 mM stock, respectively, and diluted into HGM to a final concentration of 100 nM or 100 µM, respectively. Cells were incubated in PMA or 18BGRR acid containing solution for 60 min at 37 °C. The PMA or 18BGRR solution was then carefully removed and the cells were washed once in +Ca+Mg-PBS. The PBS was then replaced with the dye transfer buffer (see above) and immediately 3 parallel cuts were made in the cell monolayer in the central part of each well using a micro scalpel knife with a flat edge stainless steel blade. For each experiment drug treatments were carried out in triplicate wells each with 3 cuts per well. Cells were then processed as described above. For analysis of the Ca^2+ dependency of gap junction coupling, HUVEC were incubated in either +Ca+Mg-PBS (+Ca) or -Ca+Mg +0.2 mM EGTA (-Ca) containing PBS and stimulated with vehicle (0.001% DMSO), or 2 μM ionomycin for 8 min. Cells were then transferred to dye transfer buffer made using +Ca or −Ca PBS, supplemented with vehicle or 2 μM ionomycin, and 3 parallel cuts were made in cell monolayers in each well. Cells were incubated for a further 8 min prior to fixation. […] A stock solution of 3.6 mM was made to generate working concentrations of 6–18 µM.
Data analysis was carried out in the open-source-based software program Fiji ImageJ. A custom-made macro (Cut_Analyzer.ijm) published in the Supplementary Materials to [48] was used for the automated quantitation of gap junction intercellular communication using images acquired for the LY signal. Analysis of total cell number (Hoechst channel) and cell viability (propidium iodide channel) was made using custom made macros ([48] and Supplementary Methods).

Series [2] concerns HUVEC. As to the kind of experiment: Cell viability (PI+ cells) in dye transfer assay. The format is cell-based. As to conditions: PMA 100 nM or 18ßGRR 100 µM, 60 min; % of PI+ cells. How it is done: as §1, with “The cells were then incubated at 37 °C for 8 or 15 min, as specified, before being washed twice with +Ca+Mg-PBS to remove the dye transfer buffer and then fixed in 3% PFA in PBS. Fresh dye transfer buffer was used for each experiment and the plates were stored in the dark at 4 °C.” left out
Data analysis was carried out in the open-source-based software program Fiji ImageJ. A custom-made macro (Cut_Analyzer.ijm) published in the Supplementary Materials to [48] was used for the automated quantitation of gap junction intercellular communication using images acquired for the LY signal. […]
Analysis of cell number. To determine the number of cells per field of view we counted the number of Hoechst stained nuclei using a simple macro (Nuclei count.ijm) recorded […]
Counting cell nuclei using Fiji ImageJ. […] Images were then converted to a mask, a Watershed applied to identify and separate overlapping nuclei and objects counted using the Analyze particles function. […]
Analysis of cell viability. […] Cell viability was expressed as the fraction of cells negative for PI. […]

In series [3] the test system is HUVEC. As to the kind of experiment: Fura-2 epifluorescence imaging of [Ca2+]i. Type of series: cell-based, human. As to conditions: ionomycin 2 µM, fura-2 loaded HUVEC. How it is done: HUVEC were grown on 24 mm square uncoated glass coverslips in growth medium. For Fura-2 loading, the cells were transferred into Hanks solution (140 mM NaCl, 5 mM KCl, 1.8 mM CaCl2, 2 mM MgCl2, 10 mM glucose, 10 mM HEPES-NaOH pH 7.4) supplemented with 2.5 µM Fura-2AM (Molecular Probes, Eugene, Oregon, USA) diluted from a stock solution of 5 mM Fura-2AM in DMSO with 2.0% Pluoronic F-127. Cells were incubated at room temperature in the dark for 20 min before being transferred into fresh Hanks solution and further maintained in the dark at RT until use. Cells were transferred to the stage of an Olympus IX71 inverted fluorescence microscope and maintained at 32–34 °C. The imaging system comprised an excitation monochromator (Optoscan, Cairn Research), U-Plan-Apo ×100 1.35 NA objective and an Ixon EMCCD camera (Andor). Fura-2 was illuminated sequentially with 355 ± 5 nm and 380 ± 5 nm light and wavelength switching synchronised with image capture using WinFluor software (Dr John Dempster, Strathclyde University). The EMCCD camera was operated in frame transfer mode at full gain and cooled to −70 °C. Full frame (512 by 512 pixels) images were acquired at 30 frames/s. Ionomycin was applied by droplet application.

The target in a further series is apo-DA-CaM (Homo sapiens, UniProt P0DP23, T111C/T35C). As to the kind of experiment: Stopped-flow association and dissociation kinetics with apo-DA-CaM (with and without 15% TFE). As to conditions: 500 nM DA-CaM with 10 µM mTrp, 5 mM EGTA, mixed with 300 µM CaM, 20 °C.
The target in a further series is TA-CaM (Homo sapiens, UniProt P0DP23). To be noted: Ca2+ titration of TA-CaM alone or with peptide.
The next series relates to CaM. As to the kind of experiment: CaM binding signals of Cx32 CT peptide.

The results in this text go back to article PMC9961272, “Ca^2+-Dependent and -Independent Calmodulin Binding to the Cytoplasmic Loop of Gap Junction Connexins” (International Journal of Molecular Sciences, 2023).

“Also recorded” adds a separate entry of the source.

Procedure for TA-CaM: The binding curves were fitted to the Hill equation to obtain Kd and Hill coefficient values (n) (Table 2).
The fluorescence was corrected for dilution and [Ca^2+] concentration was calculated using Maxchelator software. The data were fitted to the Hill equation with specific binding (y = Bmax∗x^n/(Kd^n + x^n)) using GraphPad Prism 9.
Procedure for apo-DA-CaM: We were interested to see if we can detect apo-CaM binding to Cx CL2 peptides using DA-CaM, the conformation of which is insensitive to [Ca^2+] changes, but which indicates changes in the distance between the N- and C-lobe with high sensitivity.
The kinetics of Ca^2+/DA-CaM and DA-CaM interactions with Cx CL2 peptides was measured using a TgK Scientific KinetAsyst™ double-mixing stopped-flow apparatus (TgK Scientific Ltd., Bradford-on-Avon, UK) in single mixing mode. The fluorescence was excited at 340 nm and the emission was detected by a photomultiplier tube with a long pass filter (>400 nm). […] All concentrations given are those in the mixing chamber. Data shown are averages of 3 to 5 repeats. All experiments were carried out at 20 °C. Data were analysed using Kinetic Studio software (TgK Scientific Ltd., Bradford-on-Avon, UK).

As for “N-[myr]-RRKEQKTGHAVRAIGRE-amide [control peptide]”, the “LY spread in the absence of ionomycin stimulation” value in series [1] was “no significant difference in LY spread”. Also, in series [1] (ionomycin 2 µM), the “LY spread after ionomycin pre-treatment in the presence of peptide” value is recorded as “significantly reduced LY spread”.
As for `CCCCCCCCCCCCCC(=O)O[C@@H]1[C@@H](C)[C@@]2(O)[C@@H](C=C(CO)C[C@]3(O)C(=O)C(C)=C[C@@H]23)[C@@H]2C(C)(C)[C@]12OC(C)=O` [PMA, 12-phorbol 13-myristate acetate], the “Cell viability following drug treatments” value with HUVEC [2] is reported as “No evidence for decreased cell viability”. In addition, the “LY spread after scratch wounding” value in series [1] is given as “significantly reduced LY spread”.
As to `CC1(C)[C@@H](O)CC[C@]2(C)[C@H]3C(=O)C=C4[C@@H]5C[C@@](C)(C(=O)O)CC[C@]5(C)CC[C@@]4(C)[C@]3(C)CC[C@@H]12` [18ßGRR, 18-β-glycyrrhetinic acid], the “Cell viability following drug treatments” value in the series on HUVEC [2] is “No evidence for decreased cell viability”. In series [1], the “LY spread after scratch wounding” value is “significantly reduced LY spread”.
Turning to `C[C@H](CCC(=O)O)C[C@H](C)C[C@H](C)C(=O)/C=C(\O)[C@H](C)C[C@H](C)C/C=C/[C@@H](C)[C@@H](O)[C@@H](C)[C@@H](O)C[C@@H]1CC[C@@](C)([C@H]2CC[C@@](C)([C@@H](C)O)O2)O1` [ionomycin], the “Effect on LY spread when external Ca^2+ omitted” value in series [1] (ionomycin 2 µM, 8 min, external Ca2+ omitted) is given as “greatly reduced”. In series [1] (ionomycin 2 µM, 8 min pre-treatment, external Ca2+ present, 8 min LY spread), the “LY spread after scratch formation” value is “significantly reduced the spread of LY; also recorded: completely blocked”. Also, the “Change in [Ca^2+]i (fura-2 ratio)” value in the series on HUVEC [3] is “initial fast increase in [Ca^2+]i”.
Turning to N-[myr]-RRKWQKTGHAVRAIGRL-amide [mTrp], at apo-DA-CaM, the “Dissociation from apo-DA-CaM, fast phase” value turned out to be 130 s⁻¹ and the “Dissociation from apo-DA-CaM, slow phase” value worked out at 0.9 s⁻¹. For the same molecule, in series [1], the “LY spread in the absence of ionomycin stimulation” value was “no significant difference in LY spread”. Besides, the “LY spread after ionomycin pre-treatment in the presence of peptide” value in series [1] (ionomycin 2 µM) is “reduced the inhibition of LY spread; also recorded: prevented the Ca^2+-induced block”. Besides, the “Hill Coefficient n TA-CaM” value on TA-CaM was 1.3 ± 0.1.
Regarding EINKLLSEQDGSLKDILRRS [Cx32 CT peptide], the CaM binding signal entry in the series with CaM is “unable to detect any signals indicating CaM binding”.
